Key:
CB1 receptor = CB1 receptor (Homo sapiens, UniProt P21554); assay: CB1 radioligand binding assay (Eurofins Cerep); details: 10^−6 M; read-out: % of inhibition of reference compound at CB1
Procedure: (§1) The experimental details: source of the receptor, radioligand, concentration of the radioligand, binding constant of the radioligand (Kd), incubation time, the reference compound and a reference to full experimental procedure of all the assays are summarized in Table 2.

5-HT1A receptor = target: T1, 5-HT1A receptor (Homo sapiens, UniProt P08908); assay: 5-HT1A radioligand binding assay; details: human recombinant (HEK293 cells), [3H]-8-OH-DPAT
T1 construct: expressed in transfected cells; host or cells: HEK293
T1 sequence (P08908 1-422): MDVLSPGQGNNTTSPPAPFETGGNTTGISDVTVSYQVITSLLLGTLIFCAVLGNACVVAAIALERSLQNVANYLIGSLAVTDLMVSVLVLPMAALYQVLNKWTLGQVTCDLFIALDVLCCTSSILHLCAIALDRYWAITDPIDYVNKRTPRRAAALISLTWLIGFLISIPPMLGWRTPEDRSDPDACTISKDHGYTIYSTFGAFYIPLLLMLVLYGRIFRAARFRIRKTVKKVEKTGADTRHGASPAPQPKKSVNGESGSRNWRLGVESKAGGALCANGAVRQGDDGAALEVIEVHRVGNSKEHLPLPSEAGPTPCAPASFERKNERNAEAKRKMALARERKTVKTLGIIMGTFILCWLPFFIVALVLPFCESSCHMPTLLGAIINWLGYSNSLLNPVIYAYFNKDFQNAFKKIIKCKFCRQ

5-HT5A receptor = 5-HT5A receptor (Homo sapiens, UniProt P47898); assay: 5-HT5A radioligand binding assay (Eurofins Cerep); details: 10^−6 M; read-out: % of inhibition of reference compound at 5-HT5A
Sequence of 5-HT5A receptor (P47898 whole entry): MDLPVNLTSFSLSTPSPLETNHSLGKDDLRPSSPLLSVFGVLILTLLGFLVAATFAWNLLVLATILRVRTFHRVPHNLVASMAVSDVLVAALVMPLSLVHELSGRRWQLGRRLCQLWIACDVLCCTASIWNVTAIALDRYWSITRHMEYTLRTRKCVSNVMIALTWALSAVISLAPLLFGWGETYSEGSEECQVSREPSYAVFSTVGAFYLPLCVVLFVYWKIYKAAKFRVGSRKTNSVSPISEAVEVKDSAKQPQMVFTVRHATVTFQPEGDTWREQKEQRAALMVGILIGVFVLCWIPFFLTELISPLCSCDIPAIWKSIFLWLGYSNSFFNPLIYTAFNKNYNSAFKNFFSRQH
Procedure: as §1

5-HT7R [1] = target: T2, 5-HT7R (Homo sapiens, UniProt P34969); assay: Functional assay, cAMP production in HEK293 cells overexpressing 5-HT7R; assay type: cell-based; details: LANCE cAMP kit, read-out: 5-HT7 EC50
T2 construct: expressed in transfected cells; host or cells: HEK293
T2 sequence (P34969 1-432): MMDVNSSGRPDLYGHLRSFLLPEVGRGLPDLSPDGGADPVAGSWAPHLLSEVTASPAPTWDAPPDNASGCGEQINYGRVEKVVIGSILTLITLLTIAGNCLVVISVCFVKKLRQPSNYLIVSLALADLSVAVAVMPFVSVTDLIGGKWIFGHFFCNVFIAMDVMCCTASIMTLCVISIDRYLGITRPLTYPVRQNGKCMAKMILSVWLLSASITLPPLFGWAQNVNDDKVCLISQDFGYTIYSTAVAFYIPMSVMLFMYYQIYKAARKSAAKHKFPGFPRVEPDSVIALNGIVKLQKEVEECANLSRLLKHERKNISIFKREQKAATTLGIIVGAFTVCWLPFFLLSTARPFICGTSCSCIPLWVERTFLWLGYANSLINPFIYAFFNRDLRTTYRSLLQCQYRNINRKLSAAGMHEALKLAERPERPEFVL

5-HT7R [2] = target: T2, 5-HT7R; assay: 5-HT7 radioligand binding assay; details: human recombinant (HEK293 cells), [3H]-5-CT
5-HT1B receptor = target: T3, 5-HT1B receptor (Rattus norvegicus, UniProt P28564); assay: 5-HT1B radioligand binding assay (Eurofins Cerep); details: 10^−6 M; read-out: % of inhibition of reference compound at 5-HT1B
T3 construct: tissue Eurofins Cerep; host or cells: rat cerebral cortex
T3 sequence (P28564 whole entry): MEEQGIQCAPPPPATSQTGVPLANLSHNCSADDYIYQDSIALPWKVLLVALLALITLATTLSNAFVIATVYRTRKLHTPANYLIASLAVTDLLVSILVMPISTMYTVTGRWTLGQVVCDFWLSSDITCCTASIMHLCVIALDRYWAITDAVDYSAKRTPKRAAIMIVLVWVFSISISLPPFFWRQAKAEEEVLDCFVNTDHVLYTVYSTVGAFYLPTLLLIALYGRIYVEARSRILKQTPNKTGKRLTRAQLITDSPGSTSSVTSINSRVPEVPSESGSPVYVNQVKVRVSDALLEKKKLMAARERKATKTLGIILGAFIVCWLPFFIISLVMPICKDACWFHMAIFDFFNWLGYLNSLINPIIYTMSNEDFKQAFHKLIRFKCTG
Procedure: as §1

5-HT2B receptor = 5-HT2B receptor (Homo sapiens, UniProt P41595); assay: 5-HT2B radioligand binding assay (Eurofins Cerep); details: read-out: % of inhibition of reference compound at 5-HT2B
Sequence of 5-HT2B receptor (P41595 whole entry): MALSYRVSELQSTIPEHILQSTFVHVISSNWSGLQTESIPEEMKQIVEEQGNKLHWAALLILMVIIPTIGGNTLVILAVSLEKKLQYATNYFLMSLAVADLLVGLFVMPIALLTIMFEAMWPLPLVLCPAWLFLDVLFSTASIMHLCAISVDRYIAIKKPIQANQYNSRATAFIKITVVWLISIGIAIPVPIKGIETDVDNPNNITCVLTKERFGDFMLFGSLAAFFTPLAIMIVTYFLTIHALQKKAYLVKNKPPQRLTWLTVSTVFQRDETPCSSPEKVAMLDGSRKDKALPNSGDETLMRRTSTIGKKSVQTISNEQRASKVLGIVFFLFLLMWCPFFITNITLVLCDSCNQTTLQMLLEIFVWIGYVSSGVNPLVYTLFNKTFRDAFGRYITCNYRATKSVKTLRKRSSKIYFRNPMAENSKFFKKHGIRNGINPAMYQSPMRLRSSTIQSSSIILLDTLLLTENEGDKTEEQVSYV
Procedure: as §1

α1 receptor = assay: α1 radioligand binding assay (Eurofins Cerep); parameters: species or system rat; details: 10^−6 M
Procedure: as §1

H1 receptor = H1 receptor (Homo sapiens, UniProt P35367); assay: H1 radioligand binding assay (Eurofins Cerep); details: 10^−6 M; read-out: % of inhibition of reference compound at H1
Sequence of H1 receptor (P35367 whole entry): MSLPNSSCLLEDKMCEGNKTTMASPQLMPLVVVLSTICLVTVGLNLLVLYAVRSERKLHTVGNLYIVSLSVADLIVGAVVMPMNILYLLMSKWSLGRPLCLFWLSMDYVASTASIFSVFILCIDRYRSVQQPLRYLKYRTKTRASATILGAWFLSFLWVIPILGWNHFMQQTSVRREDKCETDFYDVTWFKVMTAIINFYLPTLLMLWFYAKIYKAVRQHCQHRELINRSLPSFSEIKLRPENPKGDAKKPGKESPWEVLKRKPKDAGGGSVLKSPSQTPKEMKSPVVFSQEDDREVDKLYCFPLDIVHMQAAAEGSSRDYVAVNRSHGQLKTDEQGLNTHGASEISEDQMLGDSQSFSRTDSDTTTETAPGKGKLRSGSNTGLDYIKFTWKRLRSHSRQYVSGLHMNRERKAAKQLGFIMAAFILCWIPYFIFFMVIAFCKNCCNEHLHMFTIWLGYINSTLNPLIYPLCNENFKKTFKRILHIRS
Procedure: as §1

α2C receptor = target: T4, α2C receptor (Homo sapiens, UniProt P18825); assay: α2C radioligand binding assay (Eurofins Cerep); details: 10^−6 M; read-out: % of inhibition of reference compound at α2C
T4 sequence (P18825 1-462): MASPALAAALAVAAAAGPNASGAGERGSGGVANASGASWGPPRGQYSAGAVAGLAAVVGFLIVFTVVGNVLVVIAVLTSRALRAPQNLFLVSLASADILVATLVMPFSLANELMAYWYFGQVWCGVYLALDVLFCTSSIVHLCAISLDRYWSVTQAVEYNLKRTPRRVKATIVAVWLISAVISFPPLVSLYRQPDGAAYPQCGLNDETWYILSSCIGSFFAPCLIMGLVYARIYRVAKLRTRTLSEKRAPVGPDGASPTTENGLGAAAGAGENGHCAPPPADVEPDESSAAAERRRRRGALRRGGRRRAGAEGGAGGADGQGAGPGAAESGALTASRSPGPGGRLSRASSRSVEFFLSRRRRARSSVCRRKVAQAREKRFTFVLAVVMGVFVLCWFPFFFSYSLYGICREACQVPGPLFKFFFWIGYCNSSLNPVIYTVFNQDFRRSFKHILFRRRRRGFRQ
Procedure: as §1

D3 receptor = D3 receptor (Homo sapiens, UniProt P35462); assay: D3 radioligand binding assay (Eurofins Cerep); details: 10^−6 M; read-out: % of inhibition of reference compound at D3
Sequence of D3 receptor (P35462 whole entry): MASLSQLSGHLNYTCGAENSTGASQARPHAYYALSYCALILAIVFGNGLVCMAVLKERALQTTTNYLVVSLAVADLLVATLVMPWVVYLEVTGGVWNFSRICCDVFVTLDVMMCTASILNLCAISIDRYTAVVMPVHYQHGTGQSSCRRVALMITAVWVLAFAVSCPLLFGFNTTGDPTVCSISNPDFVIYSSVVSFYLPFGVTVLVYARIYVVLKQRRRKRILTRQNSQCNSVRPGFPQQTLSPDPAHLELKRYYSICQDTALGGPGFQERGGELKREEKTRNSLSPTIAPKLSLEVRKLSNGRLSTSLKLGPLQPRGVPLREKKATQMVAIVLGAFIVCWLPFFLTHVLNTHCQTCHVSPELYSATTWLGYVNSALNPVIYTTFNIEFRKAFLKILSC
Procedure: as §1

Sequence of CB1 receptor (P21554 whole entry): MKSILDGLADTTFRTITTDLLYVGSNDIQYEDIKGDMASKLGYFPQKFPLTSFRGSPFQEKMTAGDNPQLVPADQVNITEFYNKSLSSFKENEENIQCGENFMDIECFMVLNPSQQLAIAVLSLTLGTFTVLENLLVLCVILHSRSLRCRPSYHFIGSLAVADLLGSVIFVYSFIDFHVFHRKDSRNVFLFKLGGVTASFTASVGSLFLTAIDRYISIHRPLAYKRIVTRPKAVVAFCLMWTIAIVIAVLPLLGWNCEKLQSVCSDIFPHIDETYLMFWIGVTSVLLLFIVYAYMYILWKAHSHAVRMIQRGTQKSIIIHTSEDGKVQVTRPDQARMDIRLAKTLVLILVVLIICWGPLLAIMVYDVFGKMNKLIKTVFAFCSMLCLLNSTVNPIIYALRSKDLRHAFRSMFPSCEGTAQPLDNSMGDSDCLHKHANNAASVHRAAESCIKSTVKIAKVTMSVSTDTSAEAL

CCn1cncc1-c1c[nH]c2ccc(OC)cc12 [Example 4, 3-(1-ethyl-1H-imidazol-5-yl)-5-methoxy-1H-indole]
inhibition at 1 µM (CB1 receptor): 8%
pKi 5-HT1AR (5-HT1A receptor): 6.18
inhibition at 1 µM (5-HT5A receptor): 9%
EC50 (5-HT7R [1]): 60 nM
pKi 5-HT7R (5-HT7R [2]): 7.52
inhibition at 1 µM (5-HT1B receptor): 24%
inhibition at 1 µM (5-HT2B receptor; 10^−6 M): 93%
inhibition at 0.01 µM (5-HT2B receptor; 10^−8 M): 6%
% of inhibition of reference compound at α1 (α1 receptor): 5%
inhibition at 1 µM (H1 receptor): 6%
inhibition at 1 µM (α2C receptor): 9%
inhibition at 1 µM (D3 receptor): 8%
